Key:
[1] = system: Methicillin Resistant Staphylococcus aureus strain USA 200; assay: Minimum inhibitory concentration (MIC), CLSI broth micro-dilution, S. aureus; format: cell-based; settings: Staphylococcus aureus, MRSA / USA200; Table 6; MRSA USA 200; cation adjusted Mueller Hinton Broth + 0.002% Tween-80; 35° C., 22 hours
How it was run: (§1)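 Antibacterial potency is measured as MIC by the CLSI broth dilution method. Bacteria at OD600 0.0005 in Tween-80-supplemented cation-adjusted Mueller Hinton broth face ten twofold compound dilutions for 22 h at 35° C.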

[2] = system: Escherichia coli ATCC 25922; assay: Minimum inhibitory concentration (MIC), CLSI broth micro-dilution, E. coli; format: cell-based; settings: Escherichia coli, ATCC25922, 22 h, Table 6, cation adjusted Mueller Hinton Broth + 0.002% Tween-80, 35° C.
How it was run: as §1

| MIC [1] [µM] | MIC [2] [µM] | SMILES |
| --- | --- | --- |
| 0.023 | 1.5 | Cc1nc(C(C)(C)c2ccc(C(C)(C)C)cc2)nc(C)c1C(=O)N[C@@H](CCN)C(=O)N(C)[C@@H]1C(=O)N[C@@H](C)C(=O)N[C@H](C(=O)NCC#N)Cc2ccc(OCCN)c(c2)-c2cc1ccc2OCCN (racemic) [Compound 288, rac-(8S,11S,14S)-3,18-bis(2-aminoethoxy)-N-(cyanomethyl)-11-methyl-14-[methyl-[rac-(2S)-4-amino-2-[[2-[1-(4-tert-butylphenyl)-1-methyl-ethyl]-4,6-dimethyl-pyrimidine-5-carbonyl]amino]butanoyl]amino]-10,13-dioxo-9,12-diazatricyclo[13.3.1.12,6]icosa-1(18),2(20),3,5,15(19),16-hexaene-8-carboxamide] |
| 0.047 | 0.25 | Cc1nc(-c2ccc3c(c2)CCC3(C)C)nc(C)c1C(=O)N[C@@H](CCN)C(=O)N(C)[C@@H]1C(=O)N[C@@H](C)C(=O)N[C@H](C(=O)NCC#N)Cc2ccc(O)c(c2)-c2cc1ccc2OCCN (racemic) [Compound 531, rac-(8S,11S,14S)-18-(2-aminoethoxy)-N-(cyanomethyl)-3-hydroxy-11-methyl-14-[methyl-[rac-(2S)-4-amino-2-[[2-(1,1-dimethylindan-5-yl)-4,6-dimethyl-pyrimidine-5-carbonyl]amino]butanoyl]amino]-10,13-dioxo-9,12-diazatricyclo[13.3.1.12,6]icosa-1(18),2(20),3,5,15 8-carboxamide] |
| 0.19 | 2 | CCc1ccc(-c2nc(C)c(C(=O)N[C@@H](CCN)C(=O)N(C)[C@@H]3C(=O)N[C@@H](C)C(=O)N[C@H](C(=O)NCC#N)Cc4ccc(O)c(c4)-c4cc3ccc4OCCN)c(C)n2)cc1 (racemic) [Compound 516, rac-(8S,11S,14S)-18-(2-aminoethoxy)-N-(cyanomethyl)-3-hydroxy-11-methyl-14-[methyl-[rac-(2S)-4-amino-2-[[2-(4-ethylphenyl)-4,6-dimethyl-pyrimidine-5-carbonyl]amino]butanoyl]amino]-10,13-dioxo-9,12-diazatricyclo[13.3.1.12,6]icosa-1(18),2(20),3,5,15(19),16-hexaene-8-carboxamide] |
| 0.031 | 0.13 | Cc1nc(-c2ccc(C3(C)CC3)cc2)nc(C)c1C(=O)N[C@@H](CCN)C(=O)N(C)[C@@H]1C(=O)N[C@@H](C)C(=O)N[C@H](C(=O)NCC#N)Cc2ccc(OCCN)c(c2)-c2cc1ccc2OCCN (racemic) [Compound 280, rac-(8S,11S,14S)-3,18-bis(2-aminoethoxy)-N-(cyanomethyl)-11-methyl-14-[methyl-[rac-(2S)-4-amino-2-[[4,6-dimethyl-2-[4-(1-methylcyclopropyl)phenyl]pyrimidine-5-carbonyl]amino]butanoyl]amino]-10,13-dioxo-9,12-diazatricyclo[13.3.1.12,6]icosa-1(18),2(20),3,5,15(19),16-hexaene-8-carboxamide] |
| 0.012 | 0.094 | Cc1nc(-c2ccc(CC3CCCC3)cc2)nc(C)c1C(=O)N[C@@H](CCN)C(=O)N(C)[C@@H]1C(=O)N[C@@H](C)C(=O)N[C@H](C(=O)NCC#N)Cc2ccc(OCCN)c(c2)-c2cc1ccc2OCCN (racemic) [Compound 275, rac-(8S,11S,14S)-3,18-bis(2-aminoethoxy)-N-(cyanomethyl)-11-methyl-14-[methyl-[rac-(2S)-4-amino-2-[[2-[4-(cyclopentylmethyl)phenyl]-4,6-dimethyl-pyrimidine-5-carbonyl]amino]butanoyl]amino]-10,13-dioxo-9,12-diazatricyclo[13.3.1.12,6]icosa-1(18),2(20),3,5,15(19),16-hexaene-8-carboxamide] |
